Source: patent US8106055B2, “Substituted amide compounds” (Gruenenthal GmbH, priority 2007, dated 2012)

Tests used:
[1] = target: T1, serotonin (5-HT) reuptake (Rattus norvegicus, UniProt P31652); assay: Inhibition of serotonin (5HT) reuptake in synaptosomes from rat brain; format: biochemical; settings: test concentration of 10 μM; for inhibition at 10 µM: read-out: 5-HT (inhibition of reuptake of serotonin, % inhibition)
T1 construct: synaptosomes are freshly isolated from areas of the rat brain; from tissue; host or cells: rat brain synaptosomes (P2 fraction)
Procedure, shortened: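 Freshly isolated rat brain synaptosomes (P2 fraction) used for 5-HT reuptake. Test compound at 10 μM, activity given as % inhibition.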

[2] = target: T2, human bradykinin 1 receptor (B1R) (Homo sapiens, UniProt P46663); assay: Functional investigation on the human bradykinin 1 receptor (B1R), Ca2+ FLIPR assay in CHO K1 hB1R cells; format: cell-based; settings: test substance 10 μM, Ca2+ FLIPR, CHO K1 hB1R cells; for inhibition at 10 µM: CHO-K1, B1R antagonism human, read-out: B1R Ant. h [10 μM] % Inhibition; for B1R Ant. h [10 μM] % Inhibition: B1R antagonism human
T2 construct: expressed in transfected cells; host or cells: CHO K1 cells
T2 sequence (P46663 1-353): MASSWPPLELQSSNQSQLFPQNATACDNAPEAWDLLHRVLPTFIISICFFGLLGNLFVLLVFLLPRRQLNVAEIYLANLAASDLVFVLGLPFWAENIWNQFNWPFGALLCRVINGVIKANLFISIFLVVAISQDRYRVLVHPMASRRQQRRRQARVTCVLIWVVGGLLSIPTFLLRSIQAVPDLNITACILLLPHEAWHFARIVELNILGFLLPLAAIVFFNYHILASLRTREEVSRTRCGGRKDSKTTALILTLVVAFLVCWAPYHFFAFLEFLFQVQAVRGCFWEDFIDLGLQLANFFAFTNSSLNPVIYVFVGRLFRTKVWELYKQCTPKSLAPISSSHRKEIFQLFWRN
Procedure, shortened: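 Cells were dye-loaded with Fluo-4 plus probenecid, then test substances added and Ca2+ influx compared with agonist control for % activation. After 10-20 min, EC80 agonist (Lys-Des-Arg9-bradykinin human; Des-Arg9-bradykinin rat) was applied; suppression gave % inhibition and IC50 values.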

T1 sequence (P31652 whole entry): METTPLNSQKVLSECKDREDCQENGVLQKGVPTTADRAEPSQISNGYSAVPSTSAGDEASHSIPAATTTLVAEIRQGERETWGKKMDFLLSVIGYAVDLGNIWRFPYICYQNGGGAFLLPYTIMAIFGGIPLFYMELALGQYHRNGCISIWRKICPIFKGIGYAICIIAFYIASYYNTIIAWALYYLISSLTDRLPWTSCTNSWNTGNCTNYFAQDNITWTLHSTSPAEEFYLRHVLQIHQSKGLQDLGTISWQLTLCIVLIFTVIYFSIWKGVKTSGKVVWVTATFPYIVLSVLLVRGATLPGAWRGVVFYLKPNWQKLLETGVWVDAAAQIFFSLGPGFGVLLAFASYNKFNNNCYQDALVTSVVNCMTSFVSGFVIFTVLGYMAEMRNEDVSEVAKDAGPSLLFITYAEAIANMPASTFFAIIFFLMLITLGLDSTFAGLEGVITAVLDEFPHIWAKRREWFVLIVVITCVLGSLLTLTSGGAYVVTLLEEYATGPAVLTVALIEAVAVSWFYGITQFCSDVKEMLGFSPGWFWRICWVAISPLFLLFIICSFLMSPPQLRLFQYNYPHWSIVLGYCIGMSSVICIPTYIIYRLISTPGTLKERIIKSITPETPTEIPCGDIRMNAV

SMILES | inhibition at 10 µM [1] | inhibition at 10 µM [2] | 5-HT (inhibition of reuptake of serotonin, % inhibition) [1] | B1R Ant. h [10 μM] % Inhibition [2] | 5-HT (inhibition of reuptake of serotonin, % inhibition) ([1]; 10 µM)
COc1cc(C)c(S(=O)(=O)N2CCCC(OCC(=O)NCCC3CCC(C(c4cccs4)N(C)C)CC3)C2)c(C)c1C (stereo not shown) [Example 130, N-(2-(4-((dimethylamino)(thiophen-2-yl)methyl)cyclohexyl)ethyl)-2-(1-(4-methoxy-2,3,6-trimethylphenylsulfonyl)piperidin-3-yloxy)acetamide] | 95% | 30% | – | – | –
CN(C)C(c1ccc(F)cc1)C1CCC(CNC(=O)COCCC2CCN(S(=O)(=O)c3ccccc3)CC2)CC1 (stereo not shown) [Example 583] | – | – | 77% | −27% | –
CN(C)C(c1ccc(Cl)cc1)C1CCC(CNC(=O)COCCC2CCN(S(=O)(=O)c3ccccc3)CC2)CC1 (stereo not shown) [Example 584] | – | – | 64% | −20% | –
CN(C)C(c1cccs1)C1CCC(CNC(=O)COCC2CCCN(S(=O)(=O)c3ccccc3)C2)CC1 (stereo not shown) [Example 101, N-((4-((dimethylamino)(thiophen-2-yl)methyl)cyclohexyl)methyl)-2-((1-(phenylsulfonyl)piperidin-3-yl)methoxy)acetamide] | 94% | 0% | – | – | –
COc1ccc(S(=O)(=O)N(C)CCOCC(=O)NCC2CCC(C(CCc3ccccc3)N(C)C)CC2)cc1OC (stereo not shown) [Example 571] | – | – | 88% | −10% | –
COc1ccc(S(=O)(=O)N2CCCCC2COCC(=O)NCCC2CCC(C(c3cccs3)N(C)C)CC2)c(OC)c1 (stereo not shown) [Example 107, 2-((1-(2,4-dimethoxyphenylsulfonyl)piperidin-2-yl)methoxy)-N-(2-(4-((dimethylamino)(thiophen-2-yl)methyl)cyclohexyl)ethyl)acetamide] | 90% | -4% | – | – | –
CN(C)C(CCc1ccccc1)C1CCC(CNC(=O)COCCN(C)S(=O)(=O)c2c(Cl)cccc2Cl)CC1 (stereo not shown) [Example 580] | – | – | – | 95% | 77%
COc1ccc(S(=O)(=O)N2CCCCC2CCOCC(=O)NC2CCC(C(c3cccs3)N(C)C)CC2)cc1 (stereo not shown) [Example 6, N-(4-((dimethylamino)(thiophen-2-yl)methyl)cyclohexyl)-2-(2-(1-(4-methoxyphenylsulfonyl)piperidin-2-yl)ethoxy)acetamide] | 91% | 24% | – | – | –
COc1cc(C)c(S(=O)(=O)N(CCOCC(=O)NCCC2CCC(C(c3ccc(Cl)cc3)N(C)C)CC2)Cc2ccccc2)c(C)c1 (stereo not shown) [Example 569] | – | – | 52% | 14% | –
COc1ccc(S(=O)(=O)N2CCCCC2COCC(=O)NCC2CCC(C(CCc3ccccc3)N(C)C)CC2)c(OC)c1 (stereo not shown) [Example 486] | – | – | – | 28% | 73%
CN(C)C(c1cccc(F)c1)C1CCC(CCNC(=O)COCCN(C)S(=O)(=O)c2ccc(Cl)cc2Cl)CC1 (stereo not shown) [Example 126, 2-(2-(2,4-dichloro-N-methylphenylsulfonamido)ethoxy)-N-(2-(4-((dimethylamino)(3-fluorophenyl)methyl)cyclohexyl)ethyl)acetamide] | 86% | 103% | – | – | –
CN(C)C(c1cccs1)C1CCC(CCNC(=O)COCC2CCCN(S(=O)(=O)c3ccccc3)C2)CC1 (stereo not shown) [Example 115, N-(2-(4-((dimethylamino)(thiophen-2-yl)methyl)cyclohexyl)ethyl)-2-((1-(phenylsulfonyl)piperidin-3-yl)methoxy)acetamide] | 97% | 10% | – | – | –
Cc1ccc(S(=O)(=O)N2CCC(OCC(=O)NCC3CCC(C(c4ccccc4)N(C)C)CC3)C2)cc1 (stereo not shown) [Example 125, N-((4-((dimethylamino)(phenyl)methyl)cyclohexyl)methyl)-2-(1-tosylpyrrolidin-3-yloxy)acetamide] | 91% | 26% | – | – | –
CN(C)C(c1ccccc1)C1CCC(CNC(=O)COCCN(C)S(=O)(=O)c2ccc(F)cc2)CC1 (stereo not shown) [Example 112, N-((4-((dimethylamino)(phenyl)methyl)cyclohexyl)methyl)-2-(2-(4-fluoro-N-methylphenylsulfonamido)ethoxy)acetamide] | 85% | -1% | – | – | –
CN(C)C(c1cccs1)C1CCC(CNC(=O)COC2CCN(S(=O)(=O)c3ccc(F)cc3)C2)CC1 (stereo not shown) [Example 97, N-((4-((dimethylamino)(thiophen-2-yl)methyl)cyclohexyl)methyl)-2-(1-(4-fluorophenylsulfonyl)pyrrolidin-3-yloxy)acetamide] | 91% | 1% | – | – | –
COc1cc(C)c(S(=O)(=O)N2CCC(CCOCC(=O)NCCC3CCC(C(c4ccc(Cl)cc4)N(C)C)CC3)CC2)c(C)c1C (stereo not shown) [Example 561] | – | – | 79% | −1% | –
CN(C)C(c1ccccc1)C1CCC(CNC(=O)COC2CCCN(S(=O)(=O)c3ccccc3)C2)CC1 (stereo not shown) [Example 114, N-((4-((dimethylamino)(phenyl)methyl)cyclohexyl)methyl)-2-(1-(phenylsulfonyl)piperidin-3-yloxy)acetamide] | 96% | -17% | – | – | –
COc1cc(C)c(S(=O)(=O)N2CCC(OCC(=O)NCC3CCC(C(CCc4ccccc4)N(C)C)CC3)CC2)c(C)c1C (stereo not shown) [Example 546] | – | – | 91% | 34% | –
COc1cc(C)c(S(=O)(=O)N(CCOCC(=O)NCCC2CCC(C(c3ccc(F)cc3)N(C)C)CC2)Cc2ccccc2)c(C)c1C (stereo not shown) [Example 554] | – | – | 92% | 23% | –
CN(C)C(CCc1ccccc1)C1CCC(CNC(=O)COC2CCN(S(=O)(=O)c3ccc(F)cc3)C2)CC1 (stereo not shown) [Example 574] | – | – | 94% | 2% | –
COc1ccc(S(=O)(=O)N2Cc3ccccc3CC2COCC(=O)NCC2CCC(C(c3cccs3)N(C)C)CC2)cc1 (stereo not shown) [Example 7, N-((4-((dimethylamino)(thiophen-2-yl)methyl)cyclohexyl)methyl)-2-((2-(4-methoxyphenylsulfonyl)-1,2,3,4-tetrahydroisoquinolin-3-yl)methoxy)acetamide] | 92% | 47% | – | – | –
CN(C)C(CCc1ccccc1)C1CCC(CNC(=O)COC2CCN(S(=O)(=O)c3ccccc3)CC2)CC1 (stereo not shown) [Example 578] | – | – | 94% | −14% | –
COc1ccc(S(=O)(=O)N(C)CCOCC(=O)NC2CCC(C(c3ccc(F)cc3)N(C)C)CC2)cc1 (stereo not shown) [Example 549] | – | – | 81% | 13% | –
Cc1cc(C)c(S(=O)(=O)N(C)CCOCC(=O)NCCC2CCC(C(c3cccc(F)c3)N(C)C)CC2)c(C)c1 (stereo not shown) [Example 587] | – | – | 86% | −14% | –
COc1ccc(S(=O)(=O)N2CCCCC2COCC(=O)NCC2CCC(C(CCc3ccccc3)N(C)C)CC2)cc1OC (stereo not shown) [Example 559] | – | – | – | 2% | 84%
COc1ccc(S(=O)(=O)N2CCC(OCC(=O)NCC3CCC(C(CCc4ccccc4)N(C)C)CC3)C2)cc1OC (stereo not shown) [Example 566] | – | – | 87% | 1% | –
